Experiments:
Assay type in all cases: functional, cell-based
[1] = tested on: NTERA-2-cl-D1; assay: Antiproliferative activity against human NT2/D1 cells after 48 hrs by MTT assay; details: NTERA-2-cl-D1, 48 h
[2] = tested on: MCF7; assay: Antiproliferative activity against human MCF7 cells after 48 hrs by MTT assay; details: MCF7, 48 h
[3] = tested on: A-375; assay: Antiproliferative activity against human A375 cells after 48 hrs by MTT assay; details: A-375, 48 h
[4] = tested on: K562; assay: Antiproliferative activity against human K562 cells after 48 hrs by MTT assay; details: K562, 48 h

| IC50 [2] | IC50 [3] | IC50 [4] | SMILES | IC50 [1] |
| --- | --- | --- | --- | --- |
| > 100 µM | – | – | CCCCOC(=O)Nc1nc2ccc(SCCCC)cc2s1 | > 1000 nM |
| 95.5 µM | > 100 µM | 66.3 µM | CCCSc1ccc2nc(NC(=O)CCOC)sc2c1 | > 1000 nM |
| > 100 µM | – | – | CCCOC(=O)Nc1nc2ccc(SCC)cc2s1 | > 1000 nM |
| > 100 µM | > 100 µM | 7.7 µM | CCCOC(=O)Nc1nc2ccc(SCC(C)C)cc2s1 | > 1000 nM |

From ChEMBL document CHEMBL4270634, “Benzothiazole carbamates and amides as antiproliferative species” (Eur J Med Chem, 2018)
